Assay [1] has as its system TNF-induced NFκB reporter gene activity in L929sA cells. The experiment in a line: p(NFκB)3-50luc reporter gene assay with TNF (NFκB transrepression). The class given is cell-based. Conditions: TNF 2,500 IU/ml; for inhibition at 0.01 µM: L929sA, 10 nM compound. The procedure:
In order to compare transactivation and transrepression potencies of the different synthesized GSK866 analogs, we performed GRE- and NFκB-luciferase-dependent reporter gene studies in stable transfected cell lines, as previously described ([3], [8]). HaCat cells expressing p(GRE)2 50-Luc and L929sA cells expressing p(GRE)250-Luc or p(NFκB)350-Luc were cultured in DMEM medium with 1% L-glutamine, supplemented with 10% feral bovine serum (FBS), 100 µg/ml streptomycin, and 100 IU/mL penicillin in a humidified 5% CO2 atmosphere. Cells were passaged every 2 days at a dilution of 1:6. Reporter gene cells were plated at a density of 0.5 × 10^5 cells/well in 24 well plates and grown overnight. p(GRE)250-Luc-dependent reporter gene cells were treated with solvent (DMSO) or compound (100 fM, 1 nM, 10 nM, 100 nM, and 1 µM) for 6 h, whereas in case of p(NFκB)350-Luc, TNF (2,500 IU/mL) was added 2 h following compound treatment. After incubation with the compounds, medium was removed and cells were washed twice with PBS followed by adding 100 µl of 1× lysis buffer (0.2 M K2HPO4, 0.2 M KH2PO4, Triton X-100, pH 7.6). 25 µl of lysate was assayed for luciferase activity by adding 50 µl of luciferase assay substrate (1 mM luciferin or luciferin salt, 3 mM ATP, and 15 mM MgSO4 in 30 mM HEPES buffer, pH 7.8) followed by 10 s mixing and measuring 1 s bioluminescence using an Envision multilabel reader (Perkin Elmer).
Figure 3 Selective glucocorticoid receptor agonist GSK866 analogs UAMC-1217, UAMC-1218 but not UAMC-1158 and UAMC-1159 elicit selective glucocorticoid receptor-transactivation and NFκB-transrepression properties. Glucocorticoid response element (GRE)- and NFκB-luciferase-dependent reporter gene assays were performed in L929sA and HaCat reporter cells which were stably transfected with, respectively, p(NFκB)3-50luc or p(GRE)2-50-luc constructs. For p(GRE)2-50-luc reporter assays, cells were solvent-treated or induced with different concentrations of Dex (A), Dex-mesylate (Dex-Mes) (A), SEGRA GSK866 (C) or analogs UAMC-1158 (D), UAMC-1159 (E), UAMC-1217 (F), and UAMC-1218 (G) as indicated for a total exposure time of 6 h, whereas cells were cotreated for TNF (2,500 IU/ml) in the last 4 h for p(NFkB)3-50luc reporter assays (B–G). Corresponding lysates were assayed for luciferase activities and normalized for protein content as described in the Section “Materials and Methods.” Promoter activities are expressed as relative induction factor (± standard deviation) i.e., the ratio of expression levels recorded either at induced and non-induced conditions, with the latter taken to be 1.

A further assay deals with IL6 mRNA. As to the kind of experiment: qPCR of TNF-inducible IL6 in HaCat cells. Conditions: 6 h, 10, 100 or 1,000 nM, TNF 2,500 IU/ml last 4 h. The format is cell-based. As for the experimental part:
qPCR was performed using the GoTaq qPCR Master Mix (Promega) according to manufacturer’s instructions. In short, a 25 µl reaction volume mix per sample was prepared containing 12.5 µl GoTaq qPCR Master Mix, 0.4 µM forward and reverse primer, and nuclease-free water. We used the Rotor-Gene Q qPCR machine of Qiagen with following PCR program: 95°C for 2 min, 40 cycli denaturation (95°C, 15 s) and annealing/extension (60°C, 30 s), and dissociation (60–95°C). […] Each sample was run in triplicate. The median value of the triplicates were taken to calculate the deltaCt-values using GAPDH as the normalization gene.
(A) QPCR assays was performed against the GR target gene GILZ/TSC22D3 in HaCat cells treated for 6 h with different concentrations 10, 100 or 1,000 nM Dex or UAMC-1217. Bar graph plot represents the relative mRNA levels of GILZ/TSC22D3 upon Dex or UAMC-1217 treatment. (B) QPCR assays was performed against the TNF-inducible inflammatory gene interleukin-6 (IL6) in HaCat cells treated for 6 h with different concentrations 10, 100, or 1,000 nM Dex or UAMC-1217 either or not, cotreated for the last 4 h with TNF (2,500 IU/ml) as indicated in panel (B). […] Significant mean differences versus control setups panel (A) or TNF treated setup panel (B) are marked as *** (P < 0.001), **(P < 0.01), * (P < 0.05) and were determined by one-way ANOVA (Dunnetts Posttest).

Assay [2] deals with GR nuclear translocation in A549 cells. The experiment in a line: Immunofluorescence of nuclear GR translocation in A549 cells. The class given is cell-based, human. The conditions noted are these: serum starved A549 cells, 1 µM, 30 min. The procedure:
To detect endogenous GR in A549 cells, cells were grown in serum free media for 24 h followed by treatment with 1 µM of specific GR ligands. After 30 min of treatment, cells on the cover glass were fixed in 4% formaldehyde in phosphate-buffered saline (PBS), permeabilized with 0.3% Triton X-100–PBS, and then blocked in 5% milk, 10% FCS, 0.3% bovine serum albumin, and 0.3% Triton X-100 in PBS for 30 min at room temperature. Primary antibodies against anti GR-antibody (SantaCruz Biotechnology) were used at a dilution of 1:200. Nuclei were stained by DAPI and samples were analyzed using a confocal Leica LSM410 microscope. To quantify nuclear translocation of GR in a standardized manner, multichannel fluorescence images were analyzed using a script for FIJI image analysis freeware (http://fiji.sc) that is essentially based on a pipeline described before (CellBlocks.ijm) ([39]), and is available upon request. In brief, the analysis first segments nuclei in the Hoechst/DAPI channel and then uses the nuclear mask to define perinuclear cytoplasmic regions of interest (ROIs). Nuclei are detected after local contrast enhancement and Gaussian smoothing to, respectively, cover for spatial illumination heterogeneity and noise. After automatic thresholding (Isodata algorithm), touching nuclei are separated using a conditional watershed algorithm ([40]). Next, cytoplasmic ROIs are determined as concentric bands around the nuclei by Voronoi-restrained region growing ([41]). Finally, the average intensity of the GR channel is measured in both the nuclear and cytoplasmic ROIs and the nuclear-to cytoplasm signal intensity ratio (N/C Ratio) is calculated per cell (Figure S1 in Supplementary Material) ([42]).
Figure 6 Selective glucocorticoid receptor agonist GSK866 analogs UAMC-1217, UAMC-1218, but not UAMC-1158 and UAMC-1159 trigger nuclear glucocorticoid receptor (GR) translocation. (A) Serum starved A549 cells were left solvent treated or treated for 30 min with 1 µM Dex, Dex-mesylate (Dex-Mes), GSK866, UAMC-1158, UAMC-1159, UAMC-1217, or UAMC-1218. GR translocation was evaluated by immunofluorescence whereas nuclei were stained by DAPI dye. Magnification is at 100×. White scalebars represent […]. (B) Automated image quantification of GR translocation of three replicate immunofluorescence images of the different experimental setups.

Usually inhibition stands for the change of the read-out against control, counted positive when it falls. High values mean strong suppression, low ones little suppression. On to `C[C@@H]1C[C@H]2[C@@H]3CCC4=CC(=O)C=C[C@]4(C)[C@@]3(F)[C@@H](O)C[C@]2(C)[C@@]1(O)C(=O)CO` [Dex, Dexamethasone, reference compound], for which the inhibition at 0.01 µM in assay [1] lay within 40 to 45%. Besides, the “TNF-induced IL6 gene expression” value in the assay on IL6 mRNA is “dose-dependently reverse TNF induced IL6 gene expression”. In addition, the “nuclear GR translocation” value in assay [2] is given as “induce (partial) translocation of GR from the cytosol to the nucleus”.
`CCN(C[C@@](O)(CNC(=O)c1cnn(-c2ccc(F)cc2)c1N)C(F)(F)F)C(=O)c1c(Cl)ccc(NC(=O)CCl)c1Cl` [UAMC-1217]: in assay [1], the inhibition at 0.01 µM is around 95%. Also, the “NFκB transrepression in NFκB-luc reporter” value in assay [1] (dose range) is on record as “dose-dependent NFκB-transrepression effects”. Moreover, the “TNF-induced IL6 gene expression” value in the assay on IL6 mRNA is “dose-dependently reverse TNF induced IL6 gene expression”. For the same molecule, the “nuclear GR translocation” value in assay [2] is reported as “induce (partial) translocation of GR from the cytosol to the nucleus”.

(Values after publication PMC5672024, “Selective Glucocorticoid Receptor Properties of GSK866 Analogs with Cysteine Reactive Warheads” (Frontiers in Immunology, 2017).)
